Patent US20090220425A1, “Method to Quantitatively Measure Effect of Psychotropic Drugs on Sensory Discrimination” (DREXEL UNIVERSITY, priority 2006, published 2009)

What was measured:
[1] = test system: neurons of the infragranular layer of the primary somatosensory cortex of the rat; experiment: Classical neurophysiological measures of somatosensory responses (sensory mapping, magnitude and latency of neural responses to touch stimuli) before and after drug; format: in vivo
[2] = test system: ensemble of neurons in the deep layers of the forelimb rat primary somatosensory cortex; experiment: PSTH-based classification of stimulus location from single-trial responses of neuron ensembles (information representation); format: in vivo; details: for classification performance (bits of information) after drug compared to saline: one ensemble of neurons, touch-stimuli to contralateral body, every bin size tested, FIGS. 1A and 1B

Row | SMILES | effectiveness of the low dose ([1]; MCPP 0.075 (low) mg/kg, intraperitoneal (IP), dissolved in saline) | classification performance (bits of information) after drug compared to saline [2] | effectiveness of the medium dose ([1]; FLU 10 (medium) mg/kg, IP injection, dissolved in saline) | number of spikes per stimulus after drug ([1]; fluoxetine 10 mg/kg, two rats, 0.67 spikes per stimulus before drug, significant increase, p<0.001) | latency of the response after drug ([1]; fluoxetine 10 mg/kg, two rats, 20 msec before drug, decrease did not reach significance (p=0.11)) | amount of information represented by the ensemble after administration ([2]; binsize from 40 ms (spike-count) to 1 ms (spike-timing), single-trial discrimination of stimulus location)
1 | Clc1cccc(N2CCNCC2)c1 [MCPP, meta-chlorophenylpiperazine] | effective | increase for every bin size tested |  |  |  | 
2 | CNCCC(Oc1ccc(C(F)(F)F)cc1)c1ccccc1 (stereo not shown) [fluoxetine] |  | increased for every bin size tested | effective | 1.05 spikes per stimulus | 17.5 ms | greater
